Test results: US9718781B2, “Methods and compounds for treating proliferative disorders and viral infections” (University College Dublin, National University of Ireland, …, priority 2012, dated 2017)

Columns and labels:
TPα = biological target: T1, TPα (Homo sapiens, UniProt P21731); experiment: U46619-induced [Ca2+]i mobilization in HEK.TPα cells; assay type: cell-based; settings: for remaining activity at 1 µM / Percentage of Control, TPα, 1 μM: antagonist 1 μM; for remaining activity at 1 µM / remaining activity at 10 µM / Percentage of Control, TPα, 1 μM / Percentage of Control, TPα, 10 μM / IC50: 1 μM U46619; for remaining activity at 1 µM / remaining activity at 10 µM / Percentage of Control, TPα, 1 μM / Percentage of Control, TPα, 10 μM: % of agonist-induced response in vehicle-treated cells; for remaining activity at 1 µM: read-out: Percentage of Control, TPα, 1 μM; for remaining activity at 10 µM / Percentage of Control, TPα, 10 μM: antagonist 10 μM; for remaining activity at 10 µM: read-out: Percentage of Control, TPα, 10 μM; for IC50: HEK.TPα cells, Table 2, read-out: IC50 data for U46619-mediated [Ca2+]i mobilization, TPα; for TPα:TPβ Selectivity Ratio: IC50 TPα/IC50 TPβ
T1 construct: expressed in transfected cells
T1 sequence (P21731 1-343): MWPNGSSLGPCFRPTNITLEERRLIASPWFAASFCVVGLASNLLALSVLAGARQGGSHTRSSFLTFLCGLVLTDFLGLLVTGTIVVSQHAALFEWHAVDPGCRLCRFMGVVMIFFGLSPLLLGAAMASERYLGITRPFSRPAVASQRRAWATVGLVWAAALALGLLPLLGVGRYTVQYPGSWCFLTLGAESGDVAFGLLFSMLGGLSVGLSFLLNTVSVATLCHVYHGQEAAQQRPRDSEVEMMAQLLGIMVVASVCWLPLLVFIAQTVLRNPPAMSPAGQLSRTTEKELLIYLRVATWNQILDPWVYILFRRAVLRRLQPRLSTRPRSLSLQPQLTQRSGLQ
Description: (§1) An appropriate functional test for the evaluation of the agonistic and/or antagonistic potency of the compounds of the invention is the determination of calcium flux. Both TPα and TPβ are coupled to the G-protein Gαq. Therefore, stimulation of these receptors ultimately leads to a release of intracellular calcium ([Ca^2+]i) from intracellular stores. Consequently, the determination of [Ca^2+]i flux represents an appropriate functional test for the evaluation of the agonistic/antagonistic potency of compounds of the invention. Calcium can be measured using a molecule characterized by the covalent combination of a Ca^2+ chelating group and a fluorophore group. The Ca^2+ binding properties of these indicators are formed by the presence of a tetracarboxylic acid core as found for example in EGTA (Ethylene Glycol bis(2-aminoethyl)Tetraacetic Acid). Binding of Ca^2+ produces a wavelength shift in either the excitation or emission fluorescence spectra or a change in the emission intensity. Whereas the Ca^2+ binding to EGTA is pH dependent, recent dyes are designed from an EGTA derivative, BAPTA (1,2-Bis(2-Aminophenoxy)ethane-N,N,N′,N′-Tetraacetic Acid). Loading of these dyes inside cells commonly uses esterified forms (acetoxymethyl ester), which are able to cross the cell membranes and are subsequently hydrolyzed by esterases inside the cell.
(§2) Estimation of [Ca^2+]i flux is calculated from the fluorescence signal (F). For calibration, the maximal fluorescence (Fmax, Ca^2+-saturated form of the dye) as well as minimal fluorescence (Fmin, Ca^2+-free form of the dye) must be determined. These parameters are determined usually in situ after the experiment, for example by subsequent addition to the mixture of a cell-disrupting agent that releases all Ca^2+ such as Triton X100 and a potent Ca^2+-chelating agent such as EGTA. After subtraction of background fluorescence, [Ca^2+]; flux can be calculated for non-ratiometric indicators.
(§3) Intracellular [Ca^2+]; fluxes were measured using a fluorescence plate reader following a modified protocol of Kassack et al., ‘Quantitative comparison of functional screening by measuring intracellular Ca^2+ with radioligand binding at recombinant human dopamine receptors’, AAPS Pharmsci, 2002, 4(4); 102-111, in cell lines (e.g. HEK293 or other cell type) endogenously-expressing or over-expressing either TPα, TPβ or any other receptor or protein to be screened.
(§4) By way of example, HEK 293 cells which have been grown for 3-4 days in normal growth media (minimum essential media containing 10% FBS and 2 mmol/1 L-glutamine), under normal growth conditions (37° C., in humidified 5% CO2 atmosphere) are washed and harvested in KREBs-HEPES buffer (118 mM NaCl, 4.7 mM KCl, 1.2 mM MgSO4, 1.2 mM KH2PO4, 4.2 mM NaHCO3, 11.7 mM D-glucose, 1.3 mM CaCl2, 10 mM HEPES, pH 7.4). Cells are then incubated with 3 μM Fluo-4 in KREBs-HEPES buffer containing 1% Pluoronic F-127, for 1 hr at 25° C. with agitation. Then, cells are washed in KREBs-HEPES buffer containing 0.5% BSA and re-suspended at a final concentration of 3×10^5 cells/ml. Approx. 5.4×10^4 cells per well are plated in a 96-well plate and pre-incubated with test compounds for 10 m prior to measuring the fluorescence intensity at 520 nm for 25 seconds at 1 s intervals to monitor baseline using the Fluoroskan Ascent. Agonist (e.g., 1 μM U46619) is injected into separate wells by the automatic pipettor and fluorescence intensity is monitored at 520 nm for 75 seconds at 1 s intervals. Thereafter, Triton X100 and EGTA are added sequentially where Fmax refers to maximal fluorescence intensity measured after permeabilization of the cells with 2% Triton X100 and Fmin refers to fluorescence intensity measured after addition of 1 mM EGTA.
(§5) The dye Fluo-4 has its excitation peak at 480 nm, in the visible spectra, which spare cells to be damaged by UV (340-360 nm) stimulation and reduces auto-fluorescence of cells. […]

TPβ = biological target: T2, TPβ (Homo sapiens, UniProt P21731); experiment: U46619-induced [Ca2+]i mobilization in HEK.TPβ cells; assay type: cell-based; settings: 1 μM U46619; for remaining activity at 1 µM / activity class in HEK.TPβ cells / Percentage of Control, TPβ, 1 μM: antagonist 1 μM; for remaining activity at 1 µM / remaining activity at 10 µM / Percentage of Control, TPβ, 1 μM / Percentage of Control, TPβ, 10 μM: % of agonist-induced response in vehicle-treated cells; for remaining activity at 1 µM: read-out: Percentage of Control, TPβ, 1 μM; for remaining activity at 10 µM / Percentage of Control, TPβ, 10 μM: antagonist 10 μM; for remaining activity at 10 µM: read-out: Percentage of Control, TPβ, 10 μM; for IC50: HEK.TPβ cells, Table 2, read-out: IC50 data for U46619-mediated [Ca2+]i mobilization, TPβ
T2 construct: expressed in transfected cells
T2 sequence (P21731 1-407 isoform P21731-2): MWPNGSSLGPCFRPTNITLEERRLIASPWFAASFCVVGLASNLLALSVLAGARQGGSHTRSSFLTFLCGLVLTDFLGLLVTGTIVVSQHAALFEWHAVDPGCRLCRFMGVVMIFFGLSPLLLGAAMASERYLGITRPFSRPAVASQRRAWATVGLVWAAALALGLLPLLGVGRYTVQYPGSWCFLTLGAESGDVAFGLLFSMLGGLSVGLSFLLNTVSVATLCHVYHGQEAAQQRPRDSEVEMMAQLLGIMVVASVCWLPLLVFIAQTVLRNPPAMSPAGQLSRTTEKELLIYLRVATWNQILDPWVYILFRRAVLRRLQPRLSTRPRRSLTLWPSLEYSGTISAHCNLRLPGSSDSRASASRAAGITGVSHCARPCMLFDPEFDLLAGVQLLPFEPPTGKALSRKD
Description: as §1, §2, §3, §4, §5

For COc1ccc(-c2cccc(Oc3ccc(-c4ccoc4)cc3S(=O)(=O)NC(=O)NC(C)(C)C)c2)cc1 [NTP20], the remaining activity at 1 µM (TPα) was 72.4 ± 5.97%, the remaining activity at 10 µM (TPα) was 55.7 ± 5.84% and the remaining activity at 1 µM (TPβ) was 42.5 ± 2.32%. For the same compound, the remaining activity at 10 µM (TPβ) was 18.5 ± 3.53%.
In the case of COc1ccc(-c2cccc(Oc3ccc(-c4ccco4)cc3S(=O)(=O)NC(=O)NC(C)(C)C)c2)cc1 [NTP21], the remaining activity at 1 µM (TPα) is reported as 78.3 ± 8.28%, the remaining activity at 10 µM (TPα) is reported as 66.4 ± 4.95% and the remaining activity at 1 µM (TPβ) is reported as 51 ± 1.62%. The remaining activity at 10 µM (TPβ) was 32.2 ± 2.89%.
With COc1ccc(-c2cccc(Oc3ccc(C(=O)N4CCOCC4)cc3S(=O)(=O)NC(=O)NC(C)(C)C)c2)cc1 [NTP22] the remaining activity at 1 µM (TPα) was 101 ± 7.28%, the remaining activity at 10 µM (TPα) was 87.6 ± 11.3% and the remaining activity at 1 µM (TPβ) was 85.1 ± 4.38%. For the same compound, the remaining activity at 10 µM (TPβ) was 50.1 ± 4.06%.
COc1ccc(-c2cccc(Oc3ccc(C(=O)N4CC(O)C4)cc3S(=O)(=O)NC(=O)NC(C)(C)C)c2)cc1 [NTP23, N-(tert-butylcarbamoyl)-5-(3-hydroxyazetidine-1-carbonyl)-2-((4′-methoxy-[1,1′-biphenyl]-3-yl)oxy)benzenesulfonamide] gave a remaining activity at 1 µM (TPα) of 64.2 ± 2.89%, a remaining activity at 10 µM (TPα) of 49.9 ± 7.61% and a remaining activity at 1 µM (TPβ) of 48.4 ± 2.75%. It also gave a remaining activity at 10 µM (TPβ) of 20.4 ± 1.94%.
COc1ccc(-c2cccc(Oc3ccc(C(=O)Nc4ncco4)cc3S(=O)(=O)NC(=O)NC(C)(C)C)c2)cc1 [NTP24] gave a remaining activity at 1 µM (TPα) of 96.8 ± 3.94%, a remaining activity at 10 µM (TPα) of 107 ± 6.48% and a remaining activity at 1 µM (TPβ) of 87.7 ± 8.18%. For the same compound, the remaining activity at 10 µM (TPβ) was 37.9 ± 2.61%.
Work on COc1ccc(-c2cccc(Oc3ccc(C(=O)Nc4ccccc4)cc3S(=O)(=O)NC(=O)NC(C)(C)C)c2)cc1 [NTP25] yielded a remaining activity at 1 µM (TPα) of 80 ± 7.15%, a remaining activity at 10 µM (TPα) of 65.5 ± 6.32% and a remaining activity at 1 µM (TPβ) of 61.6 ± 1.93%. The remaining activity at 10 µM (TPβ) was 14.8 ± 2.03%.
In the case of COc1ccc(-c2cccc(Oc3ccc(S(C)(=O)=O)cc3S(=O)(=O)NC(=O)NC(C)(C)C)c2)cc1 [NTP27, N-(tert-butylcarbamoyl)-2-((4′-methoxy-[1,1′-biphenyl]-3-yl)oxy)-5-(methylsulfonyl)benzenesulfonamide], the remaining activity at 1 µM (TPα) is reported as 81.1 ± 10.2%, the remaining activity at 10 µM (TPα) is reported as 68.4 ± 4.56% and the “activity class in HEK.TPβ cells” value (TPβ) is reported as “ACTIVE”. The remaining activity at 1 µM (TPβ) was 36.4 ± 3.8% and the remaining activity at 10 µM (TPβ) was 16.3 ± 2.39%.
CCNC(=O)c1ccc(Oc2cccc(-c3ccc(OC)cc3)c2)c(S(=O)(=O)NC(=O)NC(C)(C)C)c1 [NTP28] showed a remaining activity at 1 µM (TPα) of 108 ± 7.64%, a remaining activity at 10 µM (TPα) of 89.5 ± 10.3% and a remaining activity at 1 µM (TPβ) of 110 ± 1.85%. For the same compound, the remaining activity at 10 µM (TPβ) was 62.3 ± 4.3%.
COc1ccc(-c2cccc(Oc3ccc(-c4ccncc4)cc3S(=O)(=O)NC(=O)NC(C)(C)C)c2)cc1 [NTP29] showed a remaining activity at 1 µM (TPα) of 113 ± 8.15%, a remaining activity at 10 µM (TPα) of 105 ± 8.03% and a remaining activity at 1 µM (TPβ) of 100 ± 4.69%. The remaining activity at 10 µM (TPβ) was 94.6 ± 3.58%.
For COc1ccc(-c2cccc(Oc3ccc(Cl)cc3S(=O)(=O)NC(=O)NC(C)(C)C)c2)cc1 [NTP30, N-(tert-butylcarbamoyl)-5-chloro-2-((4′-methoxy-[1,1′-biphenyl]-3-yl)oxy)benzenesulfonamide], the remaining activity at 1 µM (TPα) was 52.2 ± 3.9%, the remaining activity at 10 µM (TPα) was 23.3 ± 3.63% and the “activity class in HEK.TPβ cells” value (TPβ) was “ACTIVE”. The remaining activity at 1 µM (TPβ) was 46.5 ± 5.86% and the remaining activity at 10 µM (TPβ) was 9.31 ± 1.57%.
For COc1ccc(-c2cccc(Oc3ccncc3S(=O)(=O)NC(=O)NC(C)(C)C)c2)cc1 [NTP31, N-(tert-butylcarbamoyl)-4-((4′-methoxy-[1,1′-biphenyl]-3-yl)oxy)pyridine-3-sulfonamide], the remaining activity at 1 µM (TPα) was 77.3 ± 8.72%, the remaining activity at 10 µM (TPα) was 52.7 ± 2.89% and the remaining activity at 1 µM (TPβ) was 74.8 ± 5.49%. The remaining activity at 10 µM (TPβ) was 27.7 ± 4.21%.
For COc1ccc(-c2cccc(Oc3cc(C)c(C#N)cc3S(=O)(=O)NC(=O)NC(C)(C)C)c2)cc1 [NTP32, N-(tert-butylcarbamoyl)-5-cyano-2-((4′-methoxy-[1,1′-biphenyl]-3-yl)oxy)-4-methyl benzenesulfonamide], the “Percentage of Control, TPα, 1 μM” value (TPα) was 80.3 ± 4.21%, the “Percentage of Control, TPα, 10 μM” value (TPα) was 69.3 ± 2.07% and the “Percentage of Control, TPβ, 1 μM” value (TPβ) was 93.6 ± 4.06%. For the same compound, the “Percentage of Control, TPβ, 10 μM” value (TPβ) was 46.2 ± 4.83%.
COc1ccc(-c2cccc(Oc3ccc(C#N)cc3S(=O)(=O)NC(=O)NC(C)(C)C)c2)cc1 [NTP33, N-(tert-butylcarbamoyl)-5-cyano-2-((4′-methoxy-[1,1′-biphenyl]-3-yl)oxy)benzene-sulfonamide] was tested, and the “Percentage of Control, TPα, 1 μM” value (TPα) was 103 ± 6.25%, the “Percentage of Control, TPα, 10 μM” value (TPα) was 82.4 ± 5.86% and the “Percentage of Control, TPβ, 1 μM” value (TPβ) was 75.6 ± 6.46%. The “Percentage of Control, TPβ, 10 μM” value (TPβ) was 34.5 ± 1.56%.
With COc1ccc(-c2cccc(Oc3cc[n+]([O-])cc3S(=O)(=O)NC(=O)NC(C)(C)C)c2)cc1 [NTP41, 3-(N-(tert-butylcarbamoyl)sulfamoyl)-4-((4′-methoxy-[1,1′-biphenyl]-3-yl)oxy)pyridine 1-oxide] the remaining activity at 1 µM (TPα) was 82.6 ± 3.41%, the remaining activity at 10 µM (TPα) was 52.8 ± 8.03% and the remaining activity at 1 µM (TPβ) was 72.2 ± 5.66%. For the same compound, the remaining activity at 10 µM (TPβ) was 18.8 ± 1.77%.
With CCCCCNC(=O)NS(=O)(=O)c1cc([N+](=O)[O-])ccc1Oc1cccc(-c2ccc(OC)cc2)c1 [XLIII] the IC50 (TPα) was 13 µM, the “TPα:TPβ Selectivity Ratio” value (TPα) was 1.4 and the IC50 (TPβ) was 9.33 µM.
For CC(C)(C)NC(=O)NS(=O)(=O)c1cc([N+](=O)[O-])ccc1Oc1cccc(I)c1 [XXXVIII, 2-(3-Iodophenoxy)-5-nitrobenzene(t-butyl)sulfonyl urea], the IC50 (TPα) was 4.01 µM, the “TPα:TPβ Selectivity Ratio” value (TPα) was 2 and the IC50 (TPβ) was 1.99 µM.
